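These data come from cells grown in 96-well plates and exposed to compound for 48 hours at five concentrations. Abbreviation: GI50, concentration required for 50% inhibition of growth. The concentration for full growth arrest is given as TGI.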
Legend:
Experiment in all cases: NCI-60 cell line screen, 48 h
EKVX NSCLC = system: EKVX NSCLC
SK-MEL-28 melanoma = system: SK-MEL-28 melanoma
A549 NSCLC = system: A549 NSCLC
TK-10 renal = system: TK-10 renal
HL-60(TB) leukemia = system: HL-60(TB) leukemia
CCRF-CEM leukemia = system: CCRF-CEM leukemia
HOP-92 NSCLC = system: HOP-92 NSCLC
PC-3 prostate = system: PC-3 prostate
IGROV1 ovarian = system: IGROV1 ovarian
NCI-H460 lung = system: NCI-H460 lung

| Structure (SMILES) | GI50 (EKVX NSCLC) | TGI (EKVX NSCLC) | GI50 (SK-MEL-28 melanoma) | TGI (SK-MEL-28 melanoma) | GI50 (A549 NSCLC) | TGI (A549 NSCLC) | GI50 (TK-10 renal) | TGI (TK-10 renal) | GI50 (HL-60(TB) leukemia) | TGI (HL-60(TB) leukemia) | GI50 (CCRF-CEM leukemia) | TGI (CCRF-CEM leukemia) | GI50 (HOP-92 NSCLC) | TGI (HOP-92 NSCLC) | GI50 (PC-3 prostate) | TGI (PC-3 prostate) | GI50 (IGROV1 ovarian) | TGI (IGROV1 ovarian) | GI50 (NCI-H460 lung) | TGI (NCI-H460 lung) |
| --- | --- | --- | --- | --- | --- | --- | --- | --- | --- | --- | --- | --- | --- | --- | --- | --- | --- | --- | --- | --- |
| COC(=O)Nc1nc2ccc(C(=O)c3ccc(N(C)C4COC4)cc3)cc2[nH]1 | 0.708 µM | > 100 µM | > 100 µM | > 100 µM | 0.655 µM | > 100 µM | 31.3 µM | > 100 µM | 0.266 µM | 2.85 µM | 0.309 µM | > 100 µM | 0.62 µM | 45.9 µM | 0.379 µM | > 100 µM | 0.905 µM | > 100 µM | 0.359 µM | > 100 µM |
| N#CSc1c[nH]c2ccc(/C=C/C(=O)/C=C(/C=C/c3ccc4[nH]cc(SC#N)c4c3)OB(F)F)cc12 | 0.535 µM | 3.53 µM | 0.498 µM | 2.29 µM | 3.31 µM | 17.6 µM | 0.698 µM | 14.8 µM | 0.949 µM | 4.18 µM | 0.267 µM | 4.4 µM | 0.321 µM | 1.5 µM | 0.241 µM | 1.95 µM | 0.352 µM | 1.37 µM | 0.763 µM | 2.37 µM |
| C[C@@H](CN1CC(=O)NC(=O)C1)N1CC(=O)NC(=O)C1 | – | 546 µM | – | 1750 µM | – | 692 µM | – | 1110 µM | – | 1300 µM | – | 1840 µM | – | 908 µM | – | 1450 µM | – | 1440 µM | – | 553 µM |
| O=C(/C=N/O)Nc1cc(Cl)c(Cl)cc1Cl | – | 96.9 µM | – | > 100 µM | – | > 100 µM | – | > 100 µM | – | 53.8 µM | – | 91.9 µM | – | > 100 µM | – | > 100 µM | – | > 100 µM | – | > 100 µM |
| CCN(CC)c1ccc2c(c1)Oc1nc(N)c(C#N)c(N)c1C2Sc1ccc(OC)cc1 (stereo not given) | 0.479 µM | 1.97 µM | 1.85 µM | 3.37 µM | 1.99 µM | 3.59 µM | 2.8 µM | 4.33 µM | 2.28 µM | 6.44 µM | 1.75 µM | 5.47 µM | 1.86 µM | 3.37 µM | 1.71 µM | 3.38 µM | 1.9 µM | 3.9 µM | 1.94 µM | 3.81 µM |
| CC(C)CC(=O)Nc1n[nH]c2c1CN(C(=O)C1CCN(C)CC1)C2(C)C | 1.14 µM | > 10 µM | 0.626 µM | > 10 µM | 1.15 µM | > 10 µM | 2.81 µM | > 10 µM | 0.513 µM | 4.97 µM | 0.95 µM | > 10 µM | 0.451 µM | 7.54 µM | 1.33 µM | > 10 µM | 0.579 µM | > 10 µM | 0.309 µM | > 10 µM |
| COc1cc(Nc2ncc(F)c(Nc3ccc4c(n3)NC(=O)C(C)(C)O4)n2)cc(OC)c1OC | 4.3 µM | > 10 µM | > 100 µM | > 100 µM | 4.75 µM | > 10 µM | 0.677 µM | > 10 µM | > 10 µM | > 10 µM | 6.32 µM | > 10 µM | 0.302 µM | 4.85 µM | > 10 µM | > 10 µM | 0.43 µM | > 10 µM | > 100 µM | > 100 µM |

Reference: PubChem BioAssay (NCI)
